Measurements as given in patent publication US20230092679A1, “MCL-1 INHIBITOR ANTIBODY-DRUG CONJUGATES AND METHODS OF USE” (NOVARTIS AG, priority 2019, published 2023).

Columns and labels:
Format in all cases: cell-based
21435hx = experiment: In vitro ADC activity, AML cell lines, CellTiter-Glo (Example 20); conditions: 5 days
5339hx = experiment: as above; conditions: 5 days
f36p = experiment: as above; conditions: 5 days
kasumi1 = experiment: as above; conditions: kasumi1, 5 days
kg1 = experiment: as above; conditions: kg1, 5 days
ko52 = experiment: as above; conditions: ko52, 5 days
molm13 = experiment: as above; conditions: molm13, 5 days
molm16 = experiment: as above; conditions: molm16, 5 days
sigm5 = experiment: as above; conditions: sigm5, 5 days
various MM cell lines = experiment: In vitro ADC activity, MM cell lines, CellTiter-Glo (Example 20, Table 39); conditions: 5 days treatment; for Amax: in %

COc1ccccc1-c1nccc(COc2ccccc2C[C@@H](Oc2ncnc3sc(-c4ccc(F)cc4)c(-c4ccc(OCCN5CCN(C)CC5)c(Cl)c4C)c23)C(=O)O)n1 [P1, (2R)-2-[5-[3-chloro-2-methyl-4-[2-(4-methylpiperazin-1-yl)ethoxy]phenyl]-6-(4-fluorophenyl)thieno[2,3-d]pyrimidin-4-yl]oxy-3-[2-[[2-(2-methoxyphenyl)pyrimidin-4-yl]methoxy]phenyl]propanoic acid]
GI50 (21435hx; 120 h): 0.012 µM
Amax (21435hx; in % (unit assumed)): −91
GI50 (5339hx; 120 h): 0.005 µM
Amax (5339hx; in % (unit assumed)): −83
GI50 (f36p; 120 h): > 10 µM
Amax (f36p; unit assumed): 51%
GI50 (kasumi1; Homo sapiens, Kasumi 1, 120 h): 0.037 µM
Amax (kasumi1; in % (unit assumed)): −87
GI50 (kg1; Homo sapiens, KG-1, 120 h): 0.861 µM
Amax (kg1; in % (unit assumed)): −69
GI50 (ko52; 120 h): 0.5 µM
Amax (ko52; in % (unit assumed)): −75
GI50 (molm13; Homo sapiens, MOLM-13, 120 h): 0.002 µM
Amax (molm13; in % (unit assumed)): −54
GI50 (molm16; 120 h): 0.045 µM
Amax (molm16; in % (unit assumed)): −76
GI50 (sigm5; Homo sapiens, SIG-M5, 120 h): 0.118 µM
Amax (sigm5; in % (unit assumed)): −21
GI50 (various MM cell lines; 120 h, Ip1 cell line): 0.007 µM
GI50 (various MM cell lines; 120 h, u266b1 cell line): 0.283 µM
GI50 (various MM cell lines; Homo sapiens, AMO1, 120 h, amo1 cell line): 0.005 µM
GI50 (various MM cell lines; Homo sapiens, EJM, 120 h, ejm cell line): 0.061 µM
GI50 (various MM cell lines; Homo sapiens, KMS-11, 120 h, kms11 cell line): 0.098 µM
GI50 (various MM cell lines; Homo sapiens, KMS-12-BM, 120 h, kms12bm cell line): 0.011 µM
GI50 (various MM cell lines; Homo sapiens, L-363, 120 h, L363 cell line): 0.003 µM
GI50 (various MM cell lines; Homo sapiens, MOLP-8, 120 h, molp8 cell line): 0.001 µM
GI50 (various MM cell lines; Homo sapiens, NCI-H929, 120 h, h929 cell line): 0.001 µM
GI50 (various MM cell lines; Homo sapiens, OPM-2, 120 h, opm2 cell line): 0.001 µM
GI50 (various MM cell lines; Homo sapiens, RPMI-8226, 120 h, rpmi8226 cell line): 0.002 µM
GI50 (various MM cell lines; Homo sapiens, SK-MM-2, 120 h, skmm2 cell line): > 10 µM
Amax (various MM cell lines; Ip1 cell line): −58
GI50 (various MM cell lines; KE-97, 120 h, ke97 cell line): 7.91 µM
GI50 (various MM cell lines; KHM-1B, 120 h, khm1b cell line): 0.002 µM
GI50 (various MM cell lines; KMM-1, 120 h, kmm1 cell line): 0.154 µM
GI50 (various MM cell lines; KMS-20, 120 h, kms20 cell line): 0.008 µM
GI50 (various MM cell lines; KMS-21BM, 120 h, kms21bm cell line): 0.001 µM
GI50 (various MM cell lines; KMS-26, 120 h, kms26 cell line): 0.06 µM
GI50 (various MM cell lines; KMS-27, 120 h, kms27 cell line): 0.001 µM
GI50 (various MM cell lines; KMS-28BM, 120 h, kms28bm cell line): 0.006 µM
GI50 (various MM cell lines; KMS-34, 120 h, kms34 cell line): 0.498 µM
GI50 (various MM cell lines; Karpas-620, 120 h, karpas620 cell line): 0.205 µM
Amax (various MM cell lines; L363 cell line): −47
Amax (various MM cell lines; amo1 cell line): −20
Amax (various MM cell lines; ejm cell line): −93
Amax (various MM cell lines; h929 cell line): −74
Amax (various MM cell lines; karpas620 cell line): −43
Amax (various MM cell lines; ke97 cell line): 21
Amax (various MM cell lines; khm1b cell line): −84
Amax (various MM cell lines; kmm1 cell line): −67
Amax (various MM cell lines; kms11 cell line): −62
Amax (various MM cell lines; kms12bm cell line): −79
Amax (various MM cell lines; kms20 cell line): −88
Amax (various MM cell lines; kms21bm cell line): −76
Amax (various MM cell lines; kms26 cell line): −49
Amax (various MM cell lines; kms27 cell line): −89
Amax (various MM cell lines; kms28bm cell line): −42
Amax (various MM cell lines; kms34 cell line): −64
Amax (various MM cell lines; molp8 cell line): −74
Amax (various MM cell lines; opm2 cell line): −77
Amax (various MM cell lines; rpmi8226 cell line): −91
Amax (various MM cell lines; skmm2 cell line): 112
Amax (various MM cell lines; u266b1 cell line): −24
